# Assay results taken from patent US20250108036A1, “COMPOSITIONS FOR REMOVING SENESCENT CELLS AND USES THEREOF” (LIFECEUTIX CO., LTD., priority 2021, published 2025).
# Like-named read-outs stand apart in the source and are kept apart here.
# Experiments:
# Assay type in all cases: cell-based, human
# [1] = system: foreskin cells in which senescence was induced by doxorubicin; assay: CellTiter-Glo cell viability of doxorubicin-induced senescent foreskin cells (Examples 1-2, 10, 11, 13; Tables 4, 63, 65); conditions: Homo sapiens, 72 h, read-out: Survival (%); for viability at […]: […] test compound; for viability at 30 µM: 30 μM test compound; for viability at 90 µM: 90 μM test compound
# Method: After 3 days, cell viability was measured using CellTiter-Glo Luminescent Cell Viability Assay (Promega) or light microscopy.
# [2] = system: A549; assay: CellTiter-Glo cell viability of senescent A549 cancer cells (Example 12, Table 67); conditions: Homo sapiens; for viability at 90 µM: 90 μM test compound
# [3] = system: HMGN1; assay: HMGN1 ELISA in culture medium of foreskin cells (Examples 10, 11; Tables 62, 63, 64); conditions: Homo sapiens; for activity at 30 µM: read-out: HMGN1
# [4] = system: HMGN1; assay: HMGN1 ELISA in culture medium of A549 cancer cells (Example 12, Table 66); conditions: Homo sapiens
# [5] = 1.1 μM test compound, doxorubicin-induced senescent foreskin cells, CellTiter-Glo, 0 μM = 100
# [6] = doxorubicin-induced senescent foreskin cells, CellTiter-Glo, 0 μM = 100
# [7] = A549, doxorubicin-induced senescent A549 cancer cells, 1.1 μM test compound, CellTiter-Glo, read-out: Survival (%)
# [8] = A549, doxorubicin-induced senescent A549 cancer cells, 10 μM test compound, CellTiter-Glo, read-out: Survival (%)
# [9] = 30 μM test compound, doxorubicin-treated foreskin cells, DMSO = 100
# [10] = A549, doxorubicin-induced senescent A549 cells, test compound 30 μM, ELISA, DMSO = 100, read-out: HMGN1 (amount of HMGN1 secreted in the cell culture)
# [11] = 10 μM test compound, doxorubicin-induced senescent foreskin cells, CellTiter-Glo, 0 μM = 100
# [12] = A549, doxorubicin-induced senescent A549 cancer cells, 30 μM test compound, CellTiter-Glo, read-out: Survival (%)
# [13] = A549, doxorubicin-induced senescent A549 cancer cells, CellTiter-Glo, read-out: Survival (%)
# [14] = A549, read-out: HMGN1 (amount of HMGN1 secreted in the cell culture)
Structure (SMILES),"viability at 1.1 µM [1, 5]","viability at […] [1, 6]","viability at 1.1 µM [2, 7]","viability at 10 µM [2, 8]","activity at 30 µM [3, 9]","activity at 30 µM [4, 10]",also measured
CCNC(=O)CC[C@]12CCC(C)(C)C[C@H]1[C@H]1C(=O)C=C3[C@@]4(C)C=C(C#N)C(=O)C(C)(C)[C@@H]4CC[C@@]3(C)[C@]1(C)CC2 [LX-2402],45.2%,5.1%,99.5%,5.4%,287%,286%,
C[C@@H]1C(=O)[C@]2(C#N)O[C@@H]2[C@]2(C)C3=CC(=O)[C@@H]4[C@@H]5CC(C)(C)CC[C@]5(NC(=O)C(C)(F)F)CC[C@@]4(C)[C@]3(C)CC[C@@H]12 [LX-2319],52.9%,21.9%,96.5%,21.3%,241%,310%,
C[C@@H]1Cc2c([nH]c3ccccc23)[C@H](c2ccc(F)cc2)[C@H]1C#N [LX-418],5.1%,,17.7%,,284%,286%,
"NCC(=O)CCC(=O)O [LX-1103, 5-Aminolevulinic acid, reference compound]",104%,98.9%,96.6%,95.1%,,,"viability at 10 µM [1, 11]: 99.6%; viability at 30 µM [1, 6]: 95.2%; viability at 90 µM [1, 6]: 88%; viability at 270 µM ([1]; 270 μM test compound, doxorubicin-induced senescent foreskin cells, CellTiter-Glo, 0 μM = 100): 61.3%; viability at 30 µM [2, 12]: 91%; viability at 90 µM [2, 13]: 91.1%; viability at 270 µM ([2]; A549, doxorubicin-induced senescent A549 cancer cells, 270 μM test compound, CellTiter-Glo, read-out: Survival (%)): 63.7%; activity at 270 µM ([3]; 270 μM test compound, doxorubicin-treated foreskin cells, DMSO = 100): 172%; activity at 270 µM ([4]; A549, doxorubicin-induced senescent A549 cells, test compound 270 μM, ELISA, DMSO = 100, read-out: HMGN1 (amount of HMGN1 secreted in the cell culture)): 158%"
"Cc1c(O)cccc1C(=O)N[C@@H](CSc1ccccc1)[C@H](O)CN1C[C@H]2CCCC[C@H]2C[C@H]1C(=O)NC(C)(C)C [LX-1905, Nelfinavir, reference compound]",102%,66.4%,100%,89.1%,315%,201%,"viability at 10 µM [1, 11]: 27.9%; viability at 30 µM [1, 6]: 13.2%; viability at 30 µM [2, 12]: 53.9%"
"CCCCCCCCCCCCCCCC[P+](c1ccccc1)(c1ccccc1)c1ccccc1 [LX-1201, Hexadecyltriphenylphosphonium]",,,,,,,"viability at 1.1 µM [1]: 23%; viability at 1.1 µM ([2]; A549, read-out: Survival (%)): 47.3%; activity at 30 µM [3]: 311%; activity at 30 µM [4, 14]: 289%"
"CN(C)C(=S)N/N=C1\CCCc2cccnc21 [LX-802, 2-(6,7-Dihydroquinolin-8(5H)-ylidene)-N^4,N^4-dimethylhydrazine-1-carbothioamide]",42.7%,5.7%,62.7%,,301%,329%,
Cc1c(O)ccc2c1OCC(c1ccc(O)cc1)C2c1ccc(O)cc1 (stereo not drawn) [LX-1605],83.4%,63.8%,91.7%,41.8%,284%,338%,"viability at 10 µM [1, 11]: 43.7%; viability at 30 µM [1, 6]: 11.3%; viability at 30 µM [2, 12]: 6.4%"
COCC1Cc2c([nH]c3ccccc23)[C@H](c2ccc(C(=O)NC3CC3)cc2F)N1C(=O)CCl (stereo partly drawn) [LX-413],0.5%,,10.1%,,287%,322%,
C#CC(=O)N1[C@@H](CCCC)Cc2cc(CO)ccc2[C@@H]1c1ccc(NC23CC4CC(CC(C4)C2)C3)cc1 [LX-421],3.4%,,3.8%,,293%,328%,
"COC(=O)[C@@]1(C)CC[C@]2(C)CC[C@]3(C)[C@H](C(=O)C=C4[C@@]5(C)C=C(C#N)C(=O)C(C)(C)C5CC[C@]43C)[C@@H]2C1 (stereo partly drawn) [LX-2513, Soloxolone methyl]",49.6%,2.6%,105%,6.9%,325%,311%,
"C=CC(=O)N1CCC[C@@H](n2nc(-c3ccc(Oc4ccccc4)cc3)c3c(N)ncnc32)C1 [LX-3209, Ibrutinib, reference compound]",105%,52.8%,95.4%,55.7%,274%,199%,"viability at 10 µM [1, 11]: 2%; viability at 30 µM [2, 12]: 2.2%"
CC1=CCC(c2cc(C(=O)C3CCC(c4ccc(C#N)cc4)CC3)c(C)cc2C2CCC2)=C1 (stereo not drawn) [LX-305],101%,97.2%,99.2%,63.1%,,,"viability at 10 µM [1, 11]: 91%; viability at 30 µM [1, 6]: 78%; viability at 90 µM [1, 6]: 23.2%; viability at 30 µM [2, 12]: 41%; viability at 90 µM [2, 13]: 13.3%; activity at 90 µM ([3]; 90 μM test compound, doxorubicin-treated foreskin cells, DMSO = 100): 199%; activity at 90 µM ([4]; A549, doxorubicin-induced senescent A549 cells, test compound 90 μM, ELISA, DMSO = 100, read-out: HMGN1 (amount of HMGN1 secreted in the cell culture)): 227%"
CCC(=O)NC[C@]12CCC(C)(C)C[C@H]1[C@H]1C(=O)C=C3[C@@]4(C)C=C(C#N)C(=O)C(C)(C)[C@@H]4CC[C@@]3(C)[C@]1(C)CC2 [LX-2510],62.9%,11.8%,95.7%,2.9%,288%,317%,
"CCOc1cc2ncc(C#N)c(Nc3ccc(OCc4ccccn4)c(Cl)c3)c2cc1NC(=O)/C=C/CN(C)C [LX-1608, Neratinib, reference compound]",,,,,,,"viability at 1.1 µM [1]: 45.1%; viability at 10 µM [1]: 3.9%; viability at 1.1 µM ([2]; A549, read-out: Survival (%)): 59.3%; viability at 10 µM ([2]; A549, read-out: Survival (%)): 24.7%; viability at 30 µM ([2]; A549, read-out: Survival (%)): 2.6%; activity at 30 µM [3]: 296%; activity at 30 µM [4, 14]: 317%"
C[C@]12C=C(C#N)C(=O)C3(CC=CC3)C1=CC[C@@H]1[C@@H]2CC[C@]2(C)C(=O)CC[C@@H]12 [LX-2308],49.6%,5.9%,96.6%,23.5%,329%,287%,
"CO[C@@H]1[C@H](N(C)C(=O)c2ccccc2)C[C@H]2O[C@]1(C)n1c3ccccc3c3c4c(c5c6ccccc6n2c5c31)C(=O)NC4 [LX-3307, Midostaurin, reference compound]",108%,96.1%,99.8%,51.9%,288%,295%,"viability at 10 µM [1, 11]: 32.7%; viability at 30 µM [2, 12]: 20%"
"C[C@H]1[C@H](C)CC[C@]2(C(=O)O)CC[C@]3(C)C(=CC[C@@H]4[C@@]5(C)CC[C@H](O)C(C)(C)[C@@H]5CC[C@]43C)[C@H]12 [LX-2001, Ursolic acid]",75.2%,0.8%,98.3%,5.1%,328%,328%,
C[C@@H]1C(=O)C(C#N)=C[C@]2(C)C3=CC(=O)[C@@H]4[C@@H]5CC(C)(C)CC[C@]5(CO)CC[C@@]4(C)[C@]3(C)CC[C@@H]12 [LX-2317],48.2%,7.8%,93.5%,29.7%,317%,282%,
CC1(C)CC[C@]2(NS(C)(=O)=O)CC[C@]3(C)[C@H](C(=O)C=C4[C@@]5(C)C=C(C#N)C(=O)C(C)(C)[C@@H]5CC[C@]43C)[C@@H]2C1 [LX-2306],29.8%,7.1%,102%,11.5%,301%,296%,
C[C@H]1C(=O)C(C#N)=C[C@@]2(C)c3c(c(-c4ccccc4)nn3-c3ccc(-c4cccc(CO)c4)cc3)CC[C@H]12 [LX-2505],78.6%,36.9%,100%,18.6%,248%,308%,
"COC(=O)[C@]12CCC(C)(C)C[C@H]1[C@H]1C(=O)C=C3[C@@]4(C)C=C(C#N)C(=O)C(C)(C)[C@@H]4CC[C@@]3(C)[C@]1(C)CC2 [LX-2102, Bardoxolone methyl, reference compound]",9.4%,,88.4%,,288%,233%,
